# Measurements: patent US8586551B2, “18-membered macrocycles and analogs thereof” (Optimer Pharmaceuticals, Inc., priority 2005, dated 2013)
# How the values were obtained:
# [1] = system: Prevotella/Porphyromonas species; assay: MIC against anaerobes: Prevotella/Porphyromonas; assay type: cell-based; details: Prevotella/Porphyromonas species (42)
# Protocol: (§1) The in vitro activity of OPT-80 was determined against 350 anaerobes. The experimental procedure for which is outlined in Antimicrobial Agents and Chemotherapy, 2004, 48: 4430-4434, which is hereby incorporated by reference in its entirety.
# (§2) All organisms, including the 21 C. difficile strains, were separate isolates and not clonally related. All quality-control gram-negative and -positive strains recommended by NCCLS were included with each run: in every case, results (where available) were in range.
# [2] = system: Anaerobic non-spore-forming gram-positive rods; assay: MIC against intestinal bacteria: anaerobic non-spore-forming gram-positive rods; assay type: cell-based
# Clostridium tertium = assay: MIC against anaerobes: Clostridium tertium; assay type: cell-based; details: Clostridium tertium (10)
# Eggerthella lenta = assay: MIC against anaerobes: Eggerthella lenta; assay type: cell-based; details: Eggerthella lenta (10)
# [3] = system: Peptostreptococcus anaerobius; assay: MIC against anaerobes: Peptostreptococcus anaerobius; assay type: cell-based; details: Peptostreptococcus anaerobius (15)
# [4] = system: Other anaerobic gram-negative rods; assay: MIC against intestinal bacteria: other anaerobic gram-negative rods; assay type: cell-based
# [5] = system: Peptostreptococcus prevotii; assay: MIC against anaerobes: Peptostreptococcus prevotii; assay type: cell-based; details: Peptostreptococcus prevotii (3)
# Clostridium sordellii = assay: MIC against intestinal bacteria: Clostridium sordellii; assay type: cell-based; details: Clostridium sordellii (5)
# Protocol: (§3) The in vitro activity of OPT-80 against intestinal bacteria was evaluated. The experimental procedure for which is outlined in Antimicrobial Agents and Chemotherapy, 2004, 48: 4898-4902, which is hereby incorporated by reference in its entirety.
# (§4) Antimicrobial concentration ranges were selected to encompass or surpass the levels that would be achieved in the gut (to the extent that this information is available), subject to the limitations of solubility of the drugs in the testing medium. The range of concentration of OPT-80 used during testing was 0.03 μg/ml to 1024 μg/ml.
# (§5) For analysis, the bacteria tested were generally placed into genus, species, or other groups with at least 10 isolates. The ranges and the MICs at which 50 and 90% of isolates were inhibited were determined except for organisms with fewer than 10 strains tested, for which only the ranges are reported (Table 8).
# [6] = system: Peptostreptococcus asaccharolyticus; assay: MIC against anaerobes: Peptostreptococcus asaccharolyticus; assay type: cell-based; details: Peptostreptococcus asaccharolyticus (15)
# All Clostridium species = assay: MIC against intestinal bacteria: all Clostridium species; assay type: cell-based; details: All Clostridium species (107)
# Clostridium difficile [7] = assay: MIC against intestinal bacteria: Clostridium difficile; assay type: cell-based; details: Clostridium difficile (23)
# Protocol: as §3, §4, §5
# Propionibacterium acnes = assay: MIC against anaerobes: Propionibacterium acnes; assay type: cell-based; details: Propionibacterium acnes (20)
# [8] = system: Anaerobic gram-positive cocci; assay: MIC against intestinal bacteria: anaerobic gram-positive cocci; assay type: cell-based; details: Anaerobic gram-positive cocci (49)
# Fusobacterium nucleatum = assay: MIC against anaerobes: Fusobacterium nucleatum; assay type: cell-based; details: Fusobacterium nucleatum (14)
# Protocol: as §1, §2
# [9] = system: Peptostreptococcus tetradius; assay: MIC against anaerobes: Peptostreptococcus tetradius; assay type: cell-based; details: Peptostreptococcus tetradius (16)
# [10] = system: Streptococcus, formerly S. milleri group; assay: MIC against intestinal bacteria: Streptococcus, formerly S. milleri group; assay type: cell-based
# [11] = system: Non-fragilis B. fragilis group species; assay: MIC against anaerobes: non-fragilis B. fragilis group; assay type: cell-based; details: Bacteroides fragilis; Non-fragilis B. fragilis group species (38)
# Protocol: as §1, §2
# Clostridium spp. (all) = assay: MIC against anaerobes: Clostridium spp. (all); assay type: cell-based
# Protocol: as §1, §2
# Fusobacterium mortiferum = assay: MIC against anaerobes: Fusobacterium mortiferum; assay type: cell-based; details: Fusobacterium mortiferum (10)
# Protocol: as §1, §2
# Clostridium glycolicum = assay: MIC against intestinal bacteria: Clostridium glycolicum; assay type: cell-based; details: Clostridium glycolicum (9)
# [12] = system: Bacteroides fragilis group spp.; assay: MIC against intestinal bacteria: Bacteroides fragilis group; assay type: cell-based
# Clostridium perfringens = assay type: cell-based; details: Clostridium perfringens (14)
# E. faecalis = assay: MIC against other microorganisms: E. faecalis; details: Enterococcus faecalis
# [13] = system: All anaerobic gram-positive species; assay: MIC against intestinal bacteria: all anaerobic gram-positive species; assay type: cell-based
# [14] = system: Other Streptococcus species; assay: MIC against intestinal bacteria: other Streptococcus species; assay type: cell-based; details: Other Streptococcus species (9)
# Protocol: as §3, §4, §5
# Clostridium difficile [15] = assay: MIC against anaerobes: Clostridium difficile; assay type: cell-based; details: Clostridium difficile (21)
# Protocol: as §1, §2
# Clostridium ramosum = assay: MIC against intestinal bacteria: Clostridium ramosum; assay type: cell-based
# [16] = system: Clostridium clostridioforme; assay: MIC against intestinal bacteria: Clostridium clostridioforme; assay type: cell-based; details: Clostridium clostridioforme (4)
# Protocol: as §3, §4, §5
# C. difficile = assay: MIC versus C. difficile strains; details: Clostridioides difficile
structure (smiles),measurement,setting,value
"CCc1c(Cl)c(O)c(Cl)c(O)c1C(=O)O[C@H]1[C@H](O)[C@H](OC)[C@H](OCC2=CC=CC[C@H](O)C(C)=C[C@H](CC)[C@@H](O[C@@H]3OC(C)(C)[C@@H](OC(=O)C(C)C)[C@H](O)[C@@H]3O)C(C)=CC(C)=CC[C@@H]([C@@H](C)O)OC2=O)O[C@@H]1C [R-Tiacumicin B, 3-[[[6-Deoxy-4-O-(3,5-dichloro-2-ethyl-4,6-dihydroxybenzoyl)-2-O-methyl-β-D-mannopyranosyl]oxy]-methyl]-12(R)-[[6-deoxy-5-C-methyl-4-O-(2-methyl-1-oxopropyl)-β-D-lyxo-hexopyranosyl]oxy]-11(S)-ethyl-8(S)-hydroxy-18(S)-(1(R)-hydroxyethyl)-9,13,15-trimethyloxacyclooctadeca-3,5,9,13,15-pentaene-2-one]",MIC50,[1],> 128 µg/mL
same,MIC90,[1],> 128 µg/mL
same,MIC90,[2],32 µg/mL
same,MIC50,[2]; Anaerobic non-spore-forming gram-positive rods (63),1 µg/mL
same,MIC50,Clostridium tertium,< 0.016 µg/mL
same,MIC90,Clostridium tertium,0.03 µg/mL
same,MIC range,Clostridium tertium,<0.016 to 0.06 µg/mL
same,MIC50,Eggerthella lenta,< 0.016 µg/mL
same,MIC90,Eggerthella lenta,< 0.03 µg/mL
same,MIC range,Eggerthella lenta,<0.016 to 0.06 µg/mL
same,MIC50,[3],< 0.016 µg/mL
same,MIC90,[3],< 0.016 µg/mL
same,MIC range,[3],<0.016 to 0.03 µg/mL
same,MIC50,[4],1020 µg/mL
same,MIC90,[4],> 1020 µg/mL
same,MIC range,[4]; Other anaerobic gram-negative rods (51),0.06 to 1024 µg/mL
same,MIC range,[5],0.25 to 1.0 µg/mL
same,MIC range,Clostridium sordellii,0.06 µg/mL
same,MIC50,[6]; Peptoniphilus asaccharolyticus,0.5 µg/mL
same,MIC90,[6]; Peptoniphilus asaccharolyticus,1 µg/mL
same,MIC range,[6],0.25 to 1.0 µg/mL
same,MIC50,All Clostridium species,0.062 µg/mL
same,MIC90,All Clostridium species,128 µg/mL
same,MIC50,Clostridium difficile [7]; Clostridioides difficile,0.12 µg/mL
same,MIC90,Clostridium difficile [7]; Clostridioides difficile,0.25 µg/mL
same,MIC range,Clostridium difficile [7],0.06 to 2 µg/mL
same,MIC50,Propionibacterium acnes; Cutibacterium acnes,4 µg/mL
same,MIC90,Propionibacterium acnes; Cutibacterium acnes,4 µg/mL
same,MIC range,Propionibacterium acnes,0.5 to 1.0 µg/mL
same,MIC50,[8],0.5 µg/mL
same,MIC90,[8],2 µg/mL
same,MIC50,Fusobacterium nucleatum,> 128 µg/mL
same,MIC90,Fusobacterium nucleatum,> 128 µg/mL
same,MIC50,[9]; Anaerococcus tetradius,1 µg/mL
same,MIC90,[9]; Anaerococcus tetradius,1 µg/mL
same,MIC range,[9],0.25 to 2.0 µg/mL
same,MIC50,[10],32 µg/mL
same,MIC90,[10],32 µg/mL
same,MIC range,[10]; formerly S. milleri group (14),16 to 64 µg/mL
same,MIC50,[11],> 128 µg/mL
same,MIC90,[11],> 128 µg/mL
same,MIC50,Clostridium spp. (all),< 0.016 µg/mL
same,MIC90,Clostridium spp. (all),0.06 µg/mL
same,MIC50,Fusobacterium mortiferum,> 128 µg/mL
same,MIC90,Fusobacterium mortiferum,> 128 µg/mL
same,MIC range,Clostridium glycolicum,0.06 to 1 µg/mL
same,MIC90,[12]; Bacteroides fragilis,> 1020 µg/mL
same,MIC50,[12]; Bacteroides fragilis group spp. (50),256 µg/mL
same,MIC range,Clostridium perfringens,0.06 µg/mL
same,MIC,"E. faecalis; ATCC29212, Strain ID # 4, E. faecalis (ATCC 29212)",2 µg/mL
same,MIC,"E. faecalis; Strain ID # 5, E. faecalis Vanc. resistant",4 µg/mL
same,MIC,"E. faecalis; Strain ID # 6, E. faecalis Vanc. resistant",1 µg/mL
same,MIC50,[13],0.12 µg/mL
same,MIC90,[13]; All anaerobic gram-positive species (219),64 µg/mL
same,MIC range,[14],16 to 128 µg/mL
same,MIC50,Clostridium difficile [15]; Clostridioides difficile,< 0.016 µg/mL
same,MIC90,Clostridium difficile [15]; Clostridioides difficile,0.125 µg/mL
same,MIC range,Clostridium difficile [15],<0.016 to 0.25 µg/mL
same,MIC range,Clostridium ramosum; Clostridium ramosum (10),256 to 512 µg/mL
same,MIC50,Clostridium ramosum; Thomasclavelia ramosa,512 µg/mL
same,MIC90,"Clostridium ramosum; Thomasclavelia ramosa, Clostridium ramosum (10)",512 µg/mL
same,MIC range,[16],4 to 128 µg/mL
same,MIC,C. difficile,0.125 µg/mL
same,MIC,C. difficile; ATCC9689,0.03 µg/mL
same,MIC,C. difficile; ATCC17857,0.03 µg/mL
same,MIC,C. difficile; ATCC43255,0.125 µg/mL
